This note sets out measurements from a melting point compilation (Tetko et al.; mined from patent text by program, amines drawn as free bases though some values may be those of a salt).

The melting point is the temperature of the solid-liquid transition.

The structures appear in SMILES notation.

As to `CCCCCCCCCCCCCCOc1ccc2cc(C(=O)O)oc2c1`, the melting point is 131 to 135 °C.

`COC(=O)/C=C/c1cncc(-c2ccc(C)cc2)c1` displayed a melting point of 141 to 144 °C.

As for `CCCOc1ccc(Br)cc1-c1nc2c(CCC)nn(C)c2c(=O)[nH]1`, the melting point fell in the range of 117 to 118 °C. Under `Cc1ccc(NC(=S)NC(NC(=O)c2ccc(C)cc2)C(F)(F)F)cc1` (stereo not drawn) stands 192 to 193 °C.

In turn, `O=C(c1ccccc1)N1CC2COCC2C1` (stereo not drawn) yielded a melting point of 47 to 48 °C.

On to `O=c1[nH]nc(-c2ccc(NN=C(c3ccc(O)cc3O)c3ccc(O)cc3O)cc2)c2ccccc12`, for which the melting point is 140 to 146 °C.

With `CCOC(=O)N1CCC(=NO)c2cc(F)ccc21`, the melting point lay within 122 to 124 °C. As for `CON=C(C(C)=O)C(=O)N(C)C`, the figure is 73.5 to 75 °C; as for `COc1cc(-c2nc3ncccc3o2)cc(C(C)(C)C)c1`, 119 to 121 °C. Under `O=C1[C@H]2CCC[C@H]2N(C(=O)Cn2cnc3ccccc32)c2ccccc2N1Cc1ccccc1` (relative stereo) stands 188 to 189 °C; under `CN(C)c1nc(N(C)Cc2ccc(O)cc2)nc(N(C)Cc2ccccc2O)n1`, 80 to 81 °C. Under `CCOC(=O)c1cc(Cl)cnc1NC(=O)Cc1ccccc1` stands 114 °C. Take `N#CN=C(NCCC(=O)O)Nc1ccc2nonc2c1`: the melting point amounted to 92 °C. As for `Cc1csc(N)c1S(=O)(=O)NC(=S)NC(C)C`, the figure is 118 to 120 °C; as for `Fc1ccc(C#Cc2ccc(F)cc2)cc1`, 95 to 96 °C.

In the case of `CCOC(=O)c1cc2c(OC)ccnc2[nH]1`, the melting point was 195 to 197 °C. As for `Cc1ccc(-c2ccnc3c(C(=O)c4cccs4)cnn23)cc1NC(=O)NC(C)C`, the figure is 225 to 227 °C. As for `CC(C)(C)Nc1nc(C(F)(F)F)c(C(=O)Cl)o1`, the figure is 52 to 60 °C.

As for `O=C(CC1CC2CCC1C2)Nc1ccccc1C(c1ccc(O)cc1)c1ccc(O)cc1` (stereo not drawn), the melting point was 125 to 127 °C.

`O=c1[nH]c2ccsc2c(=O)n1CCN1CCC(=C(c2ccc(F)cc2)c2ccc(F)cc2)CC1` returned a melting point of 207 to 208 °C. Regarding `COc1cc2c(c(C(C)C)c1OC)C(=O)NS2(=O)=O`, the melting point lay within 186 to 188 °C. As for `O=Cc1ccc2[nH]cc(CCCCN3CC=C(c4ccccc4)CC3)c2c1`, the figure is 131 °C; as for `CN(C)C=Nc1ccc(-c2ccc(Cl)cc2)cn1`, 125 °C; as for `CC1(C)Oc2ccc(C#N)cc2[C@@H](NC(=O)Nc2ccc(-c3ncno3)cc2)[C@@H]1O`, 162 to 167 °C.

Turning to `N#Cc1c(Cl)cc(Cn2nnc(C(N)=O)c2N)cc1Cl`, the melting point was 238 to 240 °C. As to `CS(=O)(=O)c1cccc(NC(=O)c2cnn3c(C(F)F)cc(-c4ccc(C(F)(F)F)c(OCC(F)(F)F)c4)nc23)c1`, the melting point came to 207 °C.

The molecule `O=C1c2ccc(Cl)cc2OCc2cccnc21` gave a melting point of 100 to 102 °C. As for `CCOc1ccnc2[nH]cc(C(C)=O)c12`, the figure is over 210 °C; as for `CCCOc1ccc(-c2ccc(=S)[nH]n2)cc1OC`, 170 °C. Under `O=c1c(Cc2cccnc2)cn2c3c(cc(Cl)cc13)Oc1cc(Cl)ccc1-2` stands 170 to 171 °C; under `COc1ccc2cc(CCCCC(O)CCc3cccnc3)ccc2c1` (stereo not drawn), 83 to 84 °C; under `Cc1cc(C)c2c(c1)C(=O)CC21CNC(=O)C1` (stereo not drawn), 208 to 210 °C. As for `CC(C)CCS(=O)(=O)NC(=O)OCc1cc(OC(C)C)nn1Cc1ccc(Cl)cc1Cl`, the figure is 104 to 107 °C. On to `Cc1nc(N2CCN(Cc3ccc(OC(F)(F)F)cc3)C2=O)sc1C(=O)NCc1ccccc1`, for which the melting point lay within 197 to 198 °C.

Take `Nc1ccc(S(=O)(=O)Nc2cc(N)cc(N)c2)cc1`: the melting point was in the range of 188 to 190 °C. On to `CC(C)N1C(=O)c2cnc(-c3ccccc3)nc2N(C(=O)CCl)c2ccccc21`, for which the melting point fell in the range of 204 to 205 °C. `O=c1cc(C(F)(F)F)nc(Nc2cc(C(F)(F)F)ccc2C(F)(F)F)n1C1CCCCC1` registered a melting point of 154 to 156 °C. As for `CC(C)c1cc(-c2c3ccccc3c(Br)c3sc4ccccc4c23)cc(C(C)C)c1O`, the figure is 189 to 190 °C; as for `CCCN(CCC)c1nsc(NC(=O)NC)c1C(N)=O`, 168 to 169 °C. As for `COCOc1cc(CCCOc2nn(Cc3ccccc3)cc2CC(=O)O)n(Cc2ccc(Cl)cc2Cl)n1`, the figure is 89.5 to 91.5 °C; as for `COc1cc(C(=O)c2nc(C(=O)O)c3ccccn23)ccc1N`, 226 °C; as for `N=C(N)c1ccc(-c2cnc(-c3ccc(C(=N)N)cc3)nc2)cc1`, over 300 °C. As for `CCc1cccc(Cl)c1C(=O)N[C@@H](Cc1ccc(-c2c(C)n(C)c(=O)n(C)c2=O)cc1)C(=O)O`, the figure is 187 to 190 °C. Regarding `CS(=O)(=O)c1ccc(-c2oc3ccccc3c(=O)c2-c2ccc(F)c(Cl)c2)cc1`, the melting point was determined as 196 °C. As to `COc1ccc2nc(SC(C#N)c3ncc(C)c(OC)c3C)[nH]c2c1` (stereo not drawn), the melting point was in the range of 193 to 197 °C. Under `CCCc1nnc2n1-c1ccc(Br)cc1C(c1ccccn1)=NC2` stands 184 to 186 °C.

`CS(=O)(=O)c1ccc(-c2cnn(CC(F)(F)F)c(=O)c2-c2ccc(Cl)c(F)c2)cc1` gave a melting point of 174 to 175 °C. As for `CCOC(=O)C(=O)c1cn(CCN(C)C)c2ccccc12`, the figure is 71 to 72 °C; as for `N#Cc1ccc(C#N)c(Sc2ccccc2)c1`, 106 °C. As to `NNC(=O)c1cccc(-c2csc(N=C(N)N)n2)n1`, the melting point fell in the range of 233 to 234 °C. As for `COc1cc(-c2cc(=O)c3ccc(OCCBr)cc3o2)cc(OC)c1OC`, the figure is 184 to 185 °C; as for `Cc1nc2c(c(=O)[nH]1)-c1cc(S(=O)(=O)Nc3ccc([N+](=O)[O-])cc3)ccc1CC2`, over 240 °C.

Regarding `CC(=O)Oc1ccc(-c2cnc(NS(=O)(=O)Cc3ccccc3)c(Cc3ccccc3)n2)cc1`, the melting point was in the range of 240 to 241 °C.

`COc1cccc(C(=Cc2ccccc2)c2cccc(OC)c2OC)c1OC` registered a melting point of 138 °C. As for `O=C(O)c1ncn(Cc2ccc(Cl)c(Cl)c2)c1C(=O)O`, the figure is 258 °C; as for `CCCOC(=O)C1=C(N)NC(C)=C(C#N)C1c1cccc2ncc(-c3ccccc3)cc12` (stereo not drawn), 237 °C.

The molecule `COC(=O)c1cc2n(n1)-c1ccc(Cl)cc1C(c1ccccc1)NC2=O` (stereo not drawn) had a melting point of 236 to 238 °C. Under `O=C(O)Cc1csc(NC(=O)C(F)(F)F)n1` stands 117 to 120 °C; under `CN(C)C(=O)Cc1c(-c2ccccc2)nn2cccnc12`, 156 to 158 °C. As for `Cc1ccc(OCC(O)CCCl)cc1` (stereo not drawn), the figure is 62 to 64 °C; as for `C=C(c1ccc(Br)cc1)c1ccc(OCCCC)cc1`, 71.8 to 73 °C. As for `COC(=O)c1ccc(C)c(-n2c(C)cc(OCc3ccccc3CNC(=O)Nc3cc(C(C)(C)C)nn3-c3ccc(O)cc3)c(Cl)c2=O)c1`, the figure is 199 to 200 °C. On to `CCNC(=O)c1ccc(-n2nnc(C(=O)NC3CC3)c2CCCCCF)cc1`, for which the melting point amounted to 150 °C.
